Results: US11752125B2, “Anti-neuroinflammatory and protective compounds in Achillea fragrantissima” (THE STATE OF ISRAEL MINISTRY OF AGRICULTURE & RURAL …, priority 2013, dated 2023)

Legend:
iNOS = iNOS transcripts in LPS-stimulated microglial cells (real-time PCR); assay type: cell-based, rat; conditions: 20 μg/mL; LPS 4.5 ng/mL, 5 h
Experimental: (§1) RNA was extracted by the RNeasy Plus Mini Kit (Qiagen, Hilden, Germany) according to the manufacturer's instructions. Genomic DNA was removed from the RNA samples by using 50 units of RNase-free DNaseI at 37° C. for 1 h. RNA ([…]) was converted to cDNA using the Thermo Scientific Verso cDNA kit (Thermo Fisher Scientific Inc) following the manufacturer's protocol. The cDNA was used for quantitative real-time PCR amplification with TaqMan chemistry (Applied Biosystems) using Rat MMP9, TNFα, IL1β, iNOS, COX2 pre-designed TaqMan Gene Expression Assay from Applied Biosystems (Rn00579162_m1, Rn00562055_m1, Rn00580432_m1, Rn00561646_m1, Rn01483828_m1, respectively). […] All results from three technical replicates were normalized relative to α-Tubulin (Rn01532518.g1) and GAPDH (Rn01775763.g1), respectively, and expressed as relative expression ratios calculated (relative quantity, RQ) using the comparative method and based on the data that were created by the ABI PRISM 7700 Sequence Detection System (using version 1.6 software).
(§2) Procedure 23. Measurement of IL-1Beta, TNFalpha, iNOS, COX-2 and MMP-9 Transcripts in LPS-Activated Microglial Cells by Quantitative Real-Time PCR Analysis. • 1. […]
Microglial cells were treated with 20 μg/mL of achillolide A, followed by stimulation with LPS (4.5 ng/mL). […] The results are expressed as percentages relative to LPS-stimulated cells. […]

MMP-9 = MMP-9 transcripts in LPS-activated microglial cells (real-time PCR); assay type: cell-based, rat; conditions: LPS 4.5 ng/mL; quantitative real-time PCR
Experimental: as §1, §2
Microglial cells were treated with the indicated concentrations of achillolide A, followed by stimulation with LPS (4.5 ng/mL). […] The levels of MMP-9 transcripts were measured by quantitative real-time PCR. […]

C=C1CCC2=C(CO)C(=O)O[C@H]2/C=C(\C)[C@H](OC(C)=O)CC1=O [achillolide A]
effect on LPS-induced iNOS transcript levels (iNOS): significantly inhibited
effect on MMP-9 transcripts (MMP-9): down-regulates
